Laboratory results as given in patent US20070248996A1, “Modulators of beta-amyloid peptide aggregation comprising D-amino acids” (Paraecis Pharmaceuticals, Inc., priority 1995, published 2007).
Read-outs that look alike come from different tables or passages of the source. Square brackets hold non-standard residues; d marks the D form. Peptide text beside a SMILES is read from it. * marks the point of attachment. Benzoyl(4-OH) = O=C(c1ccc(O)cc1)*

Biological target: Aβ1-40 (Homo sapiens, UniProt P05067)
Sequence (P05067 672-711): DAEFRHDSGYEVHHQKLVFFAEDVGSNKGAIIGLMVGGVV
Assay type: biochemical
Design: ΔLag: unit not given here
Details: for ΔLag 5.0 μM / ΔLag 0.5 μM / ΔLag […]: Table VI; for ΔLag 5.0 μM: 5.0 μM test compound; for ΔLag 3 μM: 3 μM test compound; for ΔLag 4 μM: 4 μM test compound; for ΔLag 0.5 μM: 0.5 μM test compound; for ΔLag […]: […] test compound
From the text: The nucleation assay is employed to determine the ability of test compounds to alter (e.g. inhibit) the early events in formation of β-AP fibers from monomeric β-AP. Characteristic of a nucleated polymerization mechanism, a lag time is observed prior to nucleation, after which the peptide rapidly forms fibers as reflected in a linear rise in turbidity. The time delay before polymerization of β-AP monomer can be quantified as well as the extent of formation of insoluble fiber by light scattering (turbidity). Polymerization reaches equilibrium when the maximum turbidity reaches a plateau The turbidity of a solution of natural β-AP in the absence or presence of various concentrations of a β-amyloid modulator compound is determined by measuring the apparent absorbance of the solution at 405 nm (A405 nm) over time. The threshold of sensitivity for the measurement of turbidity is in the range of 15-20 μM β-AP. […] This assay can be performed using stirring or shaking to accelerate polymerization, thereby increasing the speed of the assay. Moreover the assay can be adapted to a 96-well plate format to screen multiple compounds.
HFIP-solubilized peptide is sonicated in a waterbath sonicator for 5 min at highest setting, then evaporated to dryness under a stream of argon. The peptide film is resuspended in anhydrous dimethylsulfoxide (DMSO) at a concentration of 6.9 mg/ml (25× concentration), sonicated for 5 min as before, then filtered through a 0.2 micron nylon syringe filter (VWR cat. No.28196-050). Test compounds are dissolved in DMSO at a 100× concentration. […] Ten microliters of the mixture is then added to the bottom of a well of a Corning Costar ultra low binding 96-well plate (Coming Costar, Cambridge Mass.; cat. No. 2500). Ninety microliters of water is added to the well, the plate is shaken on a rotary shaken at a constant speed at room temperature for 30 seconds, an additional 100 μl of 2× PTL buffer (20 mM NaH2PO4, 300 mM NaCl, pH 7.4) is added to the well, the plate is reshaken for 30 seconds and a baseline (t=0) turbidity reading is taken by measuring the apparent absorbance at 405 nm using a Bio-Rad Model 450 Microplate Reader. The plate is then returned to the shaker and shaken continuously for 5 hours. Turbidity readings are taken at 15 minute intervals.
β-amyloid aggregation in the absence of any modulators results in enhanced turbidity of the natural β-AP solution (i.e., an increase in the apparent absorbance at 405 nm over time). […]

[1] = Table V, hydroxylated and oxygenated modifying groups, 5 μM test compound
[2] = Table IV, hydrophobic modifying groups, 5 μM test compound
[3] = Table I, 5 μM Aβ1-40, 2 μM test compound, ratio of lag time with compound to lag time of control
[4] = Table I, 5 μM Aβ1-40, 5 μM test compound, ratio of lag time to control
[5] = Table II, second series, different stock of Aβ1-40, 2 μM test compound
[6] = Table II, second series, different stock of Aβ1-40
[7] = Table II, second series, different stock of Aβ1-40, 5 μM test compound
[8] = Table III, modifying groups derived from bile acids, 5 μM test compound

CC(C)C[C@@H](NC(=O)c1ccc(O)cc1)C(=O)N[C@@H](C(=O)N[C@H](Cc1ccc(O)cc1)C(=O)N[C@H](Cc1ccc(O)cc1)C(=O)N[C@H](C)C(N)=O)C(C)C [PPI-775, 4-Hydroxybenzoyl-d(LVYYA)-nh2] ({Benzoyl(4-OH)}-[dL][dV][dY][dY][dA]-NH2)
ΔLag (Table XI, 5 μM test compound): 1

(±)-Mandelyl-(±)-mandelyl-d(LVFFA)-nh2 [PPI-518]
ΔLag 5 μM [1]: 1.5

(±)-Mandelyl-d(AFFVL)-nh2 [PPI-584]
ΔLag 5 μM (Table IX, 5 μM test compound): 4.8

(±)-Mandelyl-d(LVFF)-nh2 [PPI-482 (isomer 1)]
ΔLag 5 μM [1]: 1.5

(±)-Mandelyl-d(LVFF)-nh2 [PPI-482 (isomer 2)]
ΔLag 5 μM [1]: 1.6

Ac-d(LFFFL)-nh2 [PPI-644]
ΔLag 5 μM (Table IX, 5 μM test compound): 2.1

Ac-d(LVFFA)-nh2 [PPI-501]
ΔLag 5 μM (Table IX, 5 μM test compound): 1.4

Acetyl-d(LV(IodoY)FA)-nh2 [PPI-506]
ΔLag 5.0 μM: 1.0

Acetyl-d(LVYFA)-nh2 [PPI-505]
ΔLag 5.0 μM: 1.0

Acetyl-d(VF)-PEA [PPI-495]
ΔLag 5 μM [2]: 1.0

Benzoylpropanoyl-d(LVFF)-nh2 [PPI-489]
ΔLag 5 μM [1]: 1.2

Butanoyl-d(LVFFA)-nh2 [PPI-525]
ΔLag 5 μM [2]: 1.0

CA-LVYFA-cooh [PPI-399]
ΔLag 2 μM [3]: 3.0
ΔLag 5 μM [4]: 6

CA-d(AFFVL)-cooh [PPI-454]
ΔLag 2 μM [3]: 4.0
ΔLag 5 μM [4]: >12

CA-d(LV(IY)FA)-oh [PPI-462]
ΔLag 2 μM [5]: 2.7
ΔLag 3 μM [6]: >2.7
ΔLag 4 μM [6]: >2.7
ΔLag 5 μM [7]: >2.7

CA-d(LVF(IY)A)-oh [PPI-463]
ΔLag 2 μM [5]: >2.7
ΔLag 3 μM [6]: >2.7
ΔLag 4 μM [6]: >2.7
ΔLag 5 μM [7]: >2.7

CA-d(LVYFA)-oh [PPI-455]
ΔLag 2 μM [5]: 1.8
ΔLag 3 μM [6]: 2.0
ΔLag 4 μM [6]: 2.3
ΔLag 5 μM [7]: >2.7

Chenodeoxycholyl-LVFFA-oh [PPI-521]
ΔLag 5 μM [8]: >2.3
ΔLag 5 μM (Table IX, 5 μM test compound): 3.6

Cholyl-LVFFA-oh [PPI-424]
ΔLag 5 μM [8]: >6.0

D-3-Phenyllactyl-d(AFFVL)-nh2 [PPI-607]
ΔLag 5 μM (Table IX, 5 μM test compound): 3.1

D-3-Phenyllactyl-d(FFFVL)-nh2 [PPI-635]
ΔLag 5 μM (Table IX, 5 μM test compound): 2.5

D-3-Phenyllactyl-d(FFVL)-nh2 [PPI-612]
ΔLag 5 μM (Table IX, 5 μM test compound): 2.1

DL-3-(4-Hydroxyphenyl)Lactyl-d(LVFFA)-nh2 [PPI-599]
ΔLag 5 μM (Table IX, 5 μM test compound): 1.4

Dihphenylacetyl-d(LVFF)-nh2 [PPI-484]
ΔLag 5 μM [2]: 1.3

Glycolyl-d(AFFLL)-nh2 [PPI-592]
ΔLag 5 μM (Table IX, 5 μM test compound): 1.8

Glycolyl-d(FFFVL)-nh2 [PPI-596]
ΔLag 5 μM (Table IX, 5 μM test compound): 3.6
ΔLag 5 μM [1]: 3.6

Glycolyl-d(LVFFA)-nh2 [PPI-535]
ΔLag 5 μM (Table IX, 5 μM test compound): 1.3
ΔLag 5 μM [1]: 1.4

H-d(A[homoPhe][homoPhe]VL)-nh2 [PPI-571]
ΔLag 5 μM (Table X, 5 μM test compound): >6

H-d(FFVL)-nh2 [PPI-602]
ΔLag 5 μM (Table X, 5 μM test compound): 1.6

H-d(LFFFL)-nh2 [PPI-638]
ΔLag 5 μM (Table X, 5 μM test compound): >6

H-d(LVFFL)-nh2 [PPI-655]
ΔLag 5 μM (Table X, 5 μM test compound): >6

Hydrocinnamoyl-d(FFFVL)-nh2 [PPI-636]
ΔLag 5 μM (Table IX, 5 μM test compound): 1.7

Hydrocinnamoyl-d(FFVL)-oh [PPI-619]
ΔLag 5 μM (Table IX, 5 μM test compound): 2.0

Hyodeoxycholyl-LVFFA-oh [PPI-520]
ΔLag 5 μM [8]: >2.3
ΔLag 5 μM (Table IX, 5 μM test compound): 1.5

Isobutanoyl-d(LVFFA)-nh2 [PPI-526]
ΔLag 5 μM [2]: 1.8

L-3-Phenyllactyl-d(AFFVL)-nh2 [PPI-608]
ΔLag 5 μM (Table IX, 5 μM test compound): >6

Lithocholyl-LVFFA-oh [PPI-425]
ΔLag 5 μM [8]: 1.4

Pepstatin A [PPI-516, reference compound]
ΔLag 5 μM [1]: 1.6

Phenylacetyl-d(LVFF)-nh2 [PPI-480]
ΔLag 5 μM [2]: 1.0

Triphenylacetyl-d(LVFF)-nh2 [PPI-485]
ΔLag 5 μM [2]: 2.7

Ursodeoxycholyl-LVFFA-oh [PPI-522]
ΔLag 5 μM [8]: >2.3
ΔLag 5 μM (Table IX, 5 μM test compound): 1.2

cholyl-D-Leu-D-Val-D-Phe-D-Phe-D-Ala-NH2 [PPI-457]
ΔLag 5 μM [4]: >10
ΔLag 5 μM (Table IX, 5 μM test compound): >6

cholyl-D-Leu-D-Val-D-Phe-phenethylamide [PPI-494]
ΔLag 2 μM [5]: 1.0
ΔLag 3 μM [6]: 1.3
ΔLag 4 μM [6]: 1.4
ΔLag 5 μM [7]: 1.4
ΔLag 5 μM [2]: 1.5
ΔLag 5 μM (Table IX, 5 μM test compound): 1.3

cholyl-Leu-Val-Phe-Phe-Ala-NH2 [PPI-382]
ΔLag 2 μM [3]: >10
ΔLag 5 μM [4]: >12

h-d(AAAAA)-nh2 [PPI-473]
ΔLag 3 μM [6]: 1.0
ΔLag 4 μM [6]: 1.0
ΔLag 5 μM [7]: 1.0

h-d(AFFFL)-nh2 [PPI-598]
ΔLag 0.5 μM: 1.3
ΔLag 5.0 μM: 6.3
ΔLag […]: 2.0
ΔLag 5 μM (Table X, 5 μM test compound): >6

h-d(AFFLL)-nh2 [PPI-577]
ΔLag 0.5 μM: 1.0
ΔLag 5.0 μM: >7.5
ΔLag […]: 1.3
ΔLag 5 μM (Table X, 5 μM test compound): >6

h-d(AFFVL)-nh2 [PPI-500]
ΔLag 0.5 μM: 1.0
ΔLag 5.0 μM: >6.0
ΔLag […]: 1.8

h-d(FFFFL)-nh2 [PPI-589]
ΔLag 0.5 μM: 1.5
ΔLag 5.0 μM: >7.5
ΔLag […]: 3.3
ΔLag 5 μM (Table X, 5 μM test compound): >6

h-d(FFFLV)-nh2 [PPI-533]
ΔLag 0.5 μM: 1.5
ΔLag 5.0 μM: >7.5
ΔLag […]: 3.8
ΔLag 5 μM (Table X, 5 μM test compound): >6

h-d(FFFVL)-nh2 [PPI-579]
ΔLag 0.5 μM: 1.8
ΔLag 5.0 μM: >7.5
ΔLag […]: 6.3
ΔLag 5 μM (Table X, 5 μM test compound): >6

h-d(LFFVL)-nh2 [PPI-578]
ΔLag 0.5 μM: 2.5
ΔLag 5.0 μM: >7.5
ΔLag […]: 4.8
ΔLag 5 μM (Table X, 5 μM test compound): 3.2

h-d(LV(IodoY)FA)-nh2 [PPI-504]
ΔLag 5.0 μM: 2.2
ΔLag 5 μM (Table X, 5 μM test compound): 1.4

h-d(LVFA)-oh [PPI-479]
ΔLag 2 μM [5]: 1.1
ΔLag 3 μM [6]: 0.9
ΔLag 4 μM [6]: 1.0
ΔLag 5 μM [7]: 1.1

h-d(LVFF)-nh2 [PPI-471]
ΔLag 2 μM [5]: 2.6
ΔLag 3 μM [6]: 2.6
ΔLag 4 μM [6]: 2.6
ΔLag 5 μM [7]: 2.4

h-d(LVYFA)-nh2 [PPI-503]
ΔLag 5.0 μM: 1.2

h-d(VF)-PEA [PPI-493]
ΔLag 2 μM [5]: 1.0
ΔLag 3 μM [6]: 1.0
ΔLag 4 μM [6]: 1.0
ΔLag 5 μM [7]: 1.9

h-d(VF)-PEA [PPI-497]
ΔLag 5 μM [2]: 1.0

h-d(VFF)-oh [PPI-502]
ΔLag 5 μM [2]: 1.0

trans-Cinnamoyl-d(LVFF)-nh2 [PPI-490]
ΔLag 5 μM [2]: 1.0
